Measurements: patent US20060035901A1, “Methotrexate derivatives useful for treating cancer and arthritis” (Serenex, Inc., priority 2004, published 2006)

Tests used:
DHFR = target: T1, DHFR (Homo sapiens, UniProt P00374); experiment: DHFR enzymatic assay; format: biochemical; conditions: determined by enzymatic assay
T1 sequence (P00374 1-187): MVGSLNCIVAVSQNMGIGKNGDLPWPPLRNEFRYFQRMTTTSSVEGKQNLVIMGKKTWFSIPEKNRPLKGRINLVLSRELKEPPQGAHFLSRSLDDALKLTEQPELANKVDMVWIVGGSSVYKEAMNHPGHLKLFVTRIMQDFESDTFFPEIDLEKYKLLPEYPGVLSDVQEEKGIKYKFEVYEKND

[1] = target: T2, propionyl-CoA carboxylase subunit beta (PCCB) (Sus scrofa, UniProt P79384); experiment: Elution of PCCB from ATP-Sepharose column loaded with porcine liver proteome, IC50 estimate; format: binding; conditions: estimated from percent of protein eluted from ATP-Sepharose column, read-out: Approximate IC50 for PCCB
T2 construct: a porcine liver proteome was run over an ATP-Sepharose™ column; from tissue; host or cells: porcine liver
T2 sequence (P79384 29-539): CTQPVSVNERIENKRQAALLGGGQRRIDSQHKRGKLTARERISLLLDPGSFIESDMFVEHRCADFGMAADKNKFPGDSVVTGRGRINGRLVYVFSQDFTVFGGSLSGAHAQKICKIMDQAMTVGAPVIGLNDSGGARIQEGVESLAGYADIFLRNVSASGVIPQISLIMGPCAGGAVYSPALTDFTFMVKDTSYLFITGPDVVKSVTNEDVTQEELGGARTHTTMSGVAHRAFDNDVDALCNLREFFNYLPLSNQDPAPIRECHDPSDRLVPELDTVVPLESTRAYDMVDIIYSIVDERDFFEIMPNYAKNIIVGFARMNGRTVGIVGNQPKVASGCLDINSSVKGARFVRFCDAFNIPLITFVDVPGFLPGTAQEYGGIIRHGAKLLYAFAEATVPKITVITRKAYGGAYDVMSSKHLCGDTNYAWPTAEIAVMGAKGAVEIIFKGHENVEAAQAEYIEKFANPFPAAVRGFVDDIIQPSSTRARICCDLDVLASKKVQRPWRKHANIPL
T2 sequence (P0DTA4 53-730 partner): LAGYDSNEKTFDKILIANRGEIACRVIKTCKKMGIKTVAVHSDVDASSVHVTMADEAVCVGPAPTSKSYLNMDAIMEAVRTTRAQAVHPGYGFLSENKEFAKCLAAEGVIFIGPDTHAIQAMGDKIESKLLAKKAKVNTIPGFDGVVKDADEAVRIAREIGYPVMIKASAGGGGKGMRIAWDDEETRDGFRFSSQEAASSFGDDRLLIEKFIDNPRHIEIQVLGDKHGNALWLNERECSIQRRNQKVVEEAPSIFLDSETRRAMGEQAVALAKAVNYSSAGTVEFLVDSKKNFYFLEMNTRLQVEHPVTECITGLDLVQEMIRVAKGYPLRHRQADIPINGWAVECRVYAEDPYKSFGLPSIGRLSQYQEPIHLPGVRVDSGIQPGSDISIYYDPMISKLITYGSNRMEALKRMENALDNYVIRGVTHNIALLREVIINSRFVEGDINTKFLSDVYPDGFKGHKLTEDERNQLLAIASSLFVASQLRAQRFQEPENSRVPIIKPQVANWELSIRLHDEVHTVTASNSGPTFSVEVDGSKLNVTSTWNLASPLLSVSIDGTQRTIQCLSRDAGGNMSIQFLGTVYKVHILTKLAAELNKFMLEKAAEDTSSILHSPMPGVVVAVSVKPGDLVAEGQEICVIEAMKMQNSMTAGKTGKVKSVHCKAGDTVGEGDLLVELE
Protocol: (§1) Similar experiments were carried out to compare the IC50 values for PYC, PCCA, and PCCB. In these trials, a porcine liver proteome was run over an ATP-Sepharose™ column to bind all purine-binding proteins. The ATP-Sepharose™ column was washed several times, and then eluted with the compound of Formula III at concentrations of 1 μM, 5 μM, 10 μM, 50 μM, 100 μM, and 500 μM to identify proteins that bound to this compound.
(§2) Gels were stained with a fluorescent stain such as sypro ruby (a highly sensitive fluorescent protein stain that can readily detect less than 1 fmol of total protein, i.e., less than 0.04 ng for a 40 kDa protein). The gels were imaged using a standard flat bed gel imager and the amount of protein estimated by densiometry. The percent of protein eluted from the column at each concentration was determined and IC50 values were calculated from these estimates. Where necessary, the eluted proteins were cut out of the gel, and identified using mass spectral techniques.
(§3) The values obtained were then compared to those for DHFR.

[2] = target: T3, pyruvate carboxylase (PYC) (Sus scrofa, UniProt A0A8W4F6F0); experiment: Elution of PYC from ATP-Sepharose column loaded with porcine liver proteome, IC50 estimate; format: binding; conditions: estimated from percent of protein eluted from ATP-Sepharose column, read-out: Approximate IC50 for PYC
T3 construct: a porcine liver proteome was run over an ATP-Sepharose™ column; from tissue; host or cells: porcine liver
T3 sequence (A0A8W4F6F0 1-1157): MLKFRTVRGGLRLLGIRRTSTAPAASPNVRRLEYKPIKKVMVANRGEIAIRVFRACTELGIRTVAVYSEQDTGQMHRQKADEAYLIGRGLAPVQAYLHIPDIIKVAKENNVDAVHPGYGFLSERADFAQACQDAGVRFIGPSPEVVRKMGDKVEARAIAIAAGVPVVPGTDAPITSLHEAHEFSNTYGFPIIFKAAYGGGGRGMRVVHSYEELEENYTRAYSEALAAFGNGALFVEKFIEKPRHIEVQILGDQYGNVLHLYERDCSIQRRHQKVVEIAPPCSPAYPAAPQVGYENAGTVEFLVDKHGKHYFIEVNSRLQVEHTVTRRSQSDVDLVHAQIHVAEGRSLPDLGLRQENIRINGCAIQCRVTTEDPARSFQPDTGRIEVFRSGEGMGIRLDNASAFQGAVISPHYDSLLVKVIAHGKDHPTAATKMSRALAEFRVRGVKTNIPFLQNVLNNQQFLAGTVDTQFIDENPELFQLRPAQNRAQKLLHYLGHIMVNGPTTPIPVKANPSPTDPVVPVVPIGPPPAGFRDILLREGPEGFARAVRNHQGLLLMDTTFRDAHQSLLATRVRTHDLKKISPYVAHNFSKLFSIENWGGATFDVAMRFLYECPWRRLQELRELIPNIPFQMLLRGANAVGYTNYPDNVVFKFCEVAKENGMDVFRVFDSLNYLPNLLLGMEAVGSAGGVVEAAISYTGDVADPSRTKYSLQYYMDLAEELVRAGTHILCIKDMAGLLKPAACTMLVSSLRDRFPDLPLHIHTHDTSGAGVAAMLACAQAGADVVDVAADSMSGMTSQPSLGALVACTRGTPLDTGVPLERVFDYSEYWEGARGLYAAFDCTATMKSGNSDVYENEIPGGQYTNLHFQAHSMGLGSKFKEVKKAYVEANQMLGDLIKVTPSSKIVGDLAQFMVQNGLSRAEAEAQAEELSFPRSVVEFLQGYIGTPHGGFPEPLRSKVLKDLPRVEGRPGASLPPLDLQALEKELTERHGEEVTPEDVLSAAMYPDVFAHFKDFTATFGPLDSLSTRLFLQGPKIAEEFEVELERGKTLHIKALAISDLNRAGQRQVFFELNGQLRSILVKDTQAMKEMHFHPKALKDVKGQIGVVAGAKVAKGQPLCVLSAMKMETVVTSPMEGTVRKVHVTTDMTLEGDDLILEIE
Protocol: as §1, with “compound. (The amount of protein eluted at the higher concentration ranges plateaued, thus confirming that the entire fraction of bound protein had been eluted.) The eluted fractions were run on a 1-dimensional SDS polyacrylamide gel.” for “compound.”
as §2
These steps were repeated with each of the compounds of Formulas IV-X, MTX, and the c series derivative. The values obtained were then compared to those for DHFR.

[3] = target: T4, propionyl-CoA carboxylase subunit alpha (PCCA) (Sus scrofa, UniProt P0DTA4); experiment: Elution of PCCA from ATP-Sepharose column loaded with porcine liver proteome, IC50 estimate; format: binding; conditions: estimated from percent of protein eluted from ATP-Sepharose column, read-out: Approximate IC50 for PCCA
T4 construct: a porcine liver proteome was run over an ATP-Sepharose™ column; from tissue; host or cells: porcine liver
T4 sequence (P0DTA4 53-730): T2 sequence (P0DTA4 53-730 partner)
T4 sequence (P79384 29-539 partner): T2 sequence (P79384 29-539)
Protocol: as §1, §2, §3

Her2 = Her2 (Homo sapiens, UniProt P04626); experiment: Elution of Her2 from ATP-Sepharose column by compound (Proteome Mining), IC50 estimate; format: binding; conditions: estimated from percent of protein eluted from ATP-Sepharose column, gel densitometry; read-out: Approximate IC50 for Her2
Her2, sequence (P04626 23-1255, species assumed): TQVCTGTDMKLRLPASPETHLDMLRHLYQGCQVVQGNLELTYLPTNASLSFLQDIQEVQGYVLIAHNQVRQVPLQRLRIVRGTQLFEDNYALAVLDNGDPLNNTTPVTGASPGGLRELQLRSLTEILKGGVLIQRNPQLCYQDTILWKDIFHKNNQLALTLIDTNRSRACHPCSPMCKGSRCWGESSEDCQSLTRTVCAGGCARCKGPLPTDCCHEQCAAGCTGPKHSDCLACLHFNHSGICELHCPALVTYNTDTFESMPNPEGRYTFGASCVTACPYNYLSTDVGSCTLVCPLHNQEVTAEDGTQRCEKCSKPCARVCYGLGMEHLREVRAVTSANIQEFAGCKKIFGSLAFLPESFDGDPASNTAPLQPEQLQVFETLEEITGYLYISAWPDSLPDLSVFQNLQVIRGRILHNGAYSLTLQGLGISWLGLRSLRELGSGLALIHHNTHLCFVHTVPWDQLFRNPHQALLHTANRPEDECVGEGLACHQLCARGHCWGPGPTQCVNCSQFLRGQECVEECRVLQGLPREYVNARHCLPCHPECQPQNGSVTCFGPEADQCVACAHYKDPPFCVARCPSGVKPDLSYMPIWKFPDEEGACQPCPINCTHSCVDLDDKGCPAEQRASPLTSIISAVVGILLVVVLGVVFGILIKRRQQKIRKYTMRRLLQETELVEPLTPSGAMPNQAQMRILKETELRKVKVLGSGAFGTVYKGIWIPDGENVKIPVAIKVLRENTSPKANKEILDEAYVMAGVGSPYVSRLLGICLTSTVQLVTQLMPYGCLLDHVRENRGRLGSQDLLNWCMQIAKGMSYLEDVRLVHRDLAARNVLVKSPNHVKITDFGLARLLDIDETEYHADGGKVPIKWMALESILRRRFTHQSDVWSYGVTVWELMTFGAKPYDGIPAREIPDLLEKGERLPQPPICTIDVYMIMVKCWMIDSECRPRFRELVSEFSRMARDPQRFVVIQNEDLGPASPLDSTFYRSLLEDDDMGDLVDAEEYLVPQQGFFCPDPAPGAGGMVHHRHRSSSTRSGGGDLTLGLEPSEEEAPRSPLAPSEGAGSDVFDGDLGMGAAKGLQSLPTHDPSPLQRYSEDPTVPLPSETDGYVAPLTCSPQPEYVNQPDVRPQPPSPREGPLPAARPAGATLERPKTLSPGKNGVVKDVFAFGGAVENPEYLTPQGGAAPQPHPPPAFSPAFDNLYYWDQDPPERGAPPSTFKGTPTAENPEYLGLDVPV
Protocol: as §2, with “A proteome containing a known quantity of Her2, EGFR, and B-Raf was run over an ATP-Sepharose™ column in order to bind all purine-binding proteins. […] The ATP-Sepharose™ was washed several times, and then eluted with the compound of Formula III. The experiment was run in duplicate at concentrations of 20 μM, 100 μM, and 500 μM of the compound of Formula III. The eluted fractions were run on a 1-dimensional SDS polyacrylamide gel. Gels” for “Gels”

B-Raf = B-Raf (Homo sapiens, UniProt P15056); experiment: Elution of B-Raf from ATP-Sepharose column by compound (Proteome Mining), IC50 estimate; format: binding; conditions: estimated from percent of protein eluted from ATP-Sepharose column, gel densitometry; read-out: Approximate IC50 for B-Raf
B-Raf, sequence (P15056 whole entry, species assumed): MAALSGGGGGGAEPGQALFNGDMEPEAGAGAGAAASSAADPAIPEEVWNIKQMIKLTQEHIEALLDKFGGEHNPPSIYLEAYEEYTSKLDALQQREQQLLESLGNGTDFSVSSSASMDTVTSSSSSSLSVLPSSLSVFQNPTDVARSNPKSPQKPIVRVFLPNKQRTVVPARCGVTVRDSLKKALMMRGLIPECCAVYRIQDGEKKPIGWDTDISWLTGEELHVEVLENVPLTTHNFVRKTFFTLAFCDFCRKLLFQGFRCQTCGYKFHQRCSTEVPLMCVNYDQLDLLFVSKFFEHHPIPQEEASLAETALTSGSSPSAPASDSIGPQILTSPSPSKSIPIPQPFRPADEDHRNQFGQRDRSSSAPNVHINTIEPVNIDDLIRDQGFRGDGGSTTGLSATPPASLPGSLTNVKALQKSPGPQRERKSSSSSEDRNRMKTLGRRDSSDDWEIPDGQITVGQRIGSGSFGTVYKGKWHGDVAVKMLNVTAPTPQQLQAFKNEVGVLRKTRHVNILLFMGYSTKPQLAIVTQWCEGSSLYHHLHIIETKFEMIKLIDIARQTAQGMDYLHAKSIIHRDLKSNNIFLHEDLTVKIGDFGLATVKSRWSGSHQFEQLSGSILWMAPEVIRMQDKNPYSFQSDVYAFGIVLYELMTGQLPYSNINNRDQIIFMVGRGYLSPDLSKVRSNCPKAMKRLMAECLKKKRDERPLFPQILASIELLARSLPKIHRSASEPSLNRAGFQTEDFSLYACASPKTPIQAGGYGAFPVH
Protocol: (§4) A proteome containing a known quantity of Her2, EGFR, and B-Raf was run over an ATP-Sepharose™ column in order to bind all purine-binding proteins. See, WO 00/63694 and U.S. Provisional Application No. 60/453,697 filed Jan. 22, 2003, each of which is incorporated by reference in its entirety. The ATP-Sepharose™ was washed several times, and then eluted with the compound of Formula III. The experiment was run in duplicate at concentrations of 20 μM, 100 μM, and 500 μM of the compound of Formula III. The eluted fractions were run on a 1-dimensional SDS polyacrylamide gel. Gels were stained with a fluorescent stain such as sypro ruby (a highly sensitive fluorescent protein stain that can readily detect less than 1 fmol of total protein, i.e., less than 0.04 ng for a 40 kDa protein). The gels were imaged using a standard flat bed gel imager and the amount of protein estimated by densiometry. The percent of protein eluted from the column at each concentration was determined and IC50 values were calculated from these estimates. Where necessary, the eluted proteins were cut out of the gel, and identified using mass spectral techniques.
(§5) These steps were repeated with each of the compounds of Formulas IV-X, MTX, and the c series derivative.

EGFR = EGFR (Homo sapiens, UniProt P00533); experiment: Elution of EGFR from ATP-Sepharose column by compound (Proteome Mining), IC50 estimate; format: binding; conditions: estimated from percent of protein eluted from ATP-Sepharose column, gel densitometry; read-out: Approximate IC50 for EGFR
EGFR, sequence (P00533 25-1210, species assumed): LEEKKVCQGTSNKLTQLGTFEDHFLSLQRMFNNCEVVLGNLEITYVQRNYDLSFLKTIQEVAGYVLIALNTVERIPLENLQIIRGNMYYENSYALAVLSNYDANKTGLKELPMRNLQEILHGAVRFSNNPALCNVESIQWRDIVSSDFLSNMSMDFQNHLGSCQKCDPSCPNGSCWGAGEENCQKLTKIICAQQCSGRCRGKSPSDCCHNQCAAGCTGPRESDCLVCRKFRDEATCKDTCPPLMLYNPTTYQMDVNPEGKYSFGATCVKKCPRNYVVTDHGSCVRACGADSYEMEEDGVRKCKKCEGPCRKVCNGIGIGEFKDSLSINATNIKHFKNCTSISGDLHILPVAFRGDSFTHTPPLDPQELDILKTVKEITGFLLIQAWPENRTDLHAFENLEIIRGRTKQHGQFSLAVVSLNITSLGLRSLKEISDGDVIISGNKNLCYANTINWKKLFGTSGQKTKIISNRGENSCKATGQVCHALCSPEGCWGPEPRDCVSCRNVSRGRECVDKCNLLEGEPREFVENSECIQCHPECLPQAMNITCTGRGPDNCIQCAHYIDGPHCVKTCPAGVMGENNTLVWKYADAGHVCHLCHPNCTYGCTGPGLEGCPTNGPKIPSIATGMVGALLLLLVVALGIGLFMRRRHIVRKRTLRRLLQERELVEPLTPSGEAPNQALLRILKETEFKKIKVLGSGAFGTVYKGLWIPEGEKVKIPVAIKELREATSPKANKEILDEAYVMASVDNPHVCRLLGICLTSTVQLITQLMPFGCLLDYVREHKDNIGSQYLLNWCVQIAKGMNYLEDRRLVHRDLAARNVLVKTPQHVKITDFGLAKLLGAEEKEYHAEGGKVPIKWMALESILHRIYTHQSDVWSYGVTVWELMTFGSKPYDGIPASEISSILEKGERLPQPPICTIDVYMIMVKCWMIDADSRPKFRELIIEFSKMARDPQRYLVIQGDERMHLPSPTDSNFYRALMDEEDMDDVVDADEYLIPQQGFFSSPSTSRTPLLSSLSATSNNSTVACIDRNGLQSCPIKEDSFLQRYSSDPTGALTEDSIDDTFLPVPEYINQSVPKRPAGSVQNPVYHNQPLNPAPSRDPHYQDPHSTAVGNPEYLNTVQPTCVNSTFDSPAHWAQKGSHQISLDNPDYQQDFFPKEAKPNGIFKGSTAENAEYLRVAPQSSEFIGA
Protocol: as §4, §5

Cc1cc(C(=O)NC(CCC(=O)O)C(=O)O)ccc1N(Cc1cnc2nc(N)nc(N)c2n1)CC(C)(C)C (stereo not drawn) [Formula IV]
IC50 (DHFR): 0.017 µM | IC50 [1]: 10 µM | IC50 [2]: 5 µM | IC50 [3]: 6 µM

CC(C)=CCN(Cc1cnc2nc(N)nc(N)c2n1)c1ccc(C(=O)NC(CCC(=O)O)C(=O)O)cc1C (stereo not drawn) [Formula VI]
IC50 [1]: 1 µM | IC50 [2]: 0.5 µM | IC50 [3]: 1 µM

Cc1cc(C(=O)NC(CCC(=O)O)C(=O)O)ccc1N(Cc1cnc2nc(N)nc(N)c2n1)CC1CC1 (stereo not drawn) [Formula V]
IC50 (Her2): 5 µM | IC50 [1]: 3.5 µM | IC50 [2]: 4 µM | IC50 [3]: 2 µM

CC(C)(C)CN(Cc1cnc2nc(N)nc(N)c2n1)c1ccc(C(=O)NC(CCC(=O)O)C(=O)O)cc1 (stereo not drawn) [Formula X]
IC50 (DHFR): 0.016 µM | IC50 [1]: 4 µM | IC50 [2]: 4.35 µM | IC50 [3]: 2.5 µM

CN(Cc1cnc2nc(N)nc(N)c2n1)c1ccc(C(=O)N[C@@H](CCC(=O)O)C(=O)O)cc1 [MTX, N-[4-[[(2,4-diamino-6-pteridinyl)methyl]methylamino]benzoyl]-L-glutamic acid, reference compound]
IC50 (B-Raf): ≥ 10 µM | IC50 [2]: 0.35 µM | IC50 (EGFR): > 15 µM
